The values that follow come from patent publication US11702402B2, “Small molecules that block proteasome-associated ubiquitin receptor RPN13 function and uses thereof” (DANA-FARBER CANCER INSTITUTE, INC., priority 2018, dated 2023).

“Also recorded” adds a separate entry of the source.

One series concerns the target CRBN-DDB1 (Homo sapiens, UniProt Q96SW2). As to the kind of experiment: CRBN AlphaScreen (displacement of biotinylated-pomalidomide probe). The settings on record: in vitro AlphaScreen; thalidomide and lenalidomide as positive controls. Format: binding.
The test system of series [1] is Ub-tagged GFP that is constitutively targeted for proteasomal degradation. As to the kind of experiment: Ub-GFP (GFPu-1) reporter cell line immunoblot. Type of series: cell-based. To be noted: 16 hours. Here is the method: Cell lysates were loaded on SDS-PAGE, transferred to PVDF membrane, then immunoblotted with anti-GFP, and anti beta-actin antibodies.
In FIG. 18, a reporter cell line expressing Ub-tagged GFP that is constitutively targeted for proteasomal degradation was treated with RA190 ([…]); and JQRA ([…]) for 16 hours. Cell lysates were loaded on SDS-PAGE, transferred to PVDF membrane, then immunoblotted with anti-GFP, and anti-alpha tubulin antibodies.
FIGS. 19A-19I show the exemplary design and characterization of exemplary Rpn13 degrader WL40. […] WL40 was created by linking the Rpn13 inhibitor RA190 to the IMiD thalidomide as a ligand for the CRBN E3 ligase via a PEG linker. […] FIG. 19C is a schematic cartoon for the novel AlphaScreen assay to measure the binding activity of inhibitor with RPN13 proteins. […] FIG. 19E depicts immunoblot analysis of multiple myeloma 1S (MM.1S) cells, which were treated with WL40 or RA190 at the indicated concentrations and time periods; protein lysates were subjected to the immunoblot analysis using anti-Rpn13 or anti-tubulin Abs. FIG. 19F depicts flow cytometry analysis of MM.1S cells, which were treated with DMSO control, WL40 (400 nM), or RA190 (500 nM) for 16 hours; cells were then washed and stained with Rpn13 Ab conjugated with AlexaFluor-647, followed by the flow cytometry analysis. Isotype Ab conjugated to AlexaFluor-647 was used as control for non-specific binding. Data was quantified using FACS Diva (BD Biosciences, USA) and FlowJo (FlowJo LLC, USA). FIG. 19G depicts immunoblot analysis of MM.1S-CRBN KO cells, which were treated with WL40 (400 nM) or RA190 (500 nM) for 16 hours; protein lysates were subjected to the immunoblot analysis using anti-Rpn13 or anti β-actin Abs. […]
To confirm that CRBN presence is a prerequisite for the function of WL40 in cells, CRBN-knockout (KO) MM.1S cells^27, 38 were utilized, and the effect of WL40 on Rpn13 degradation was examined. […] GFPu-1 cells were treated with WL40, and GFP levels were then analyzed using immunoblotting. […]
A general note: In western blotting, separated proteins are transferred to a membrane and probed.

Series [2] relates to multiple myeloma cell lines. As to the kind of experiment: Viability of a panel of multiple myeloma cell lines. Format: cell-based, Human. The source says:
FIGS. […] Wst-1 assay was used to test cell viability. FIGS. 6A and 6B show the effect of exemplary bifunctional compounds WL40 and WL44 on multiple myeloma cell lines.

In another series the test system is MM.1S CRBN KO cells. As to the kind of experiment: MM.1S CRBN KO cell viability. Type of series: cell-based, Human. The source says: FIGS. […] Wst-1 assay was used to test cell viability.
The experiment was repeated twice and JQRA concentration was increased (as indicated) at the second time.

The next series deals with RPMI-8226 cells. As to the kind of experiment: RPMI-8226 cell viability. Type of series: cell-based, Human. The settings on record: p53-mutated RPMI-8226; 48 hours. The text has this:
(§1) The IC50 of WL40 for cell lines is shown.

Series [3] has as its system MM.1S cells co-cultured with patient BMSCs. As to the kind of experiment: MM.1S co-culture with patient BMSCs (WST). To be noted: 48 hours. Type of series: cell-based, Human.
Text: as §1

For series [4], the system named is MM.1S cells co-cultured with patient pDCs. As to the kind of experiment: MM.1S co-culture with patient pDCs (WST). Type of series: cell-based, Human. To be noted: 48 hours.
Text: as §1

The test system of the next series is MM.1S cells. To be noted: human, 48 h.

CRBN-DDB1, sequence (Q96SW2 whole entry): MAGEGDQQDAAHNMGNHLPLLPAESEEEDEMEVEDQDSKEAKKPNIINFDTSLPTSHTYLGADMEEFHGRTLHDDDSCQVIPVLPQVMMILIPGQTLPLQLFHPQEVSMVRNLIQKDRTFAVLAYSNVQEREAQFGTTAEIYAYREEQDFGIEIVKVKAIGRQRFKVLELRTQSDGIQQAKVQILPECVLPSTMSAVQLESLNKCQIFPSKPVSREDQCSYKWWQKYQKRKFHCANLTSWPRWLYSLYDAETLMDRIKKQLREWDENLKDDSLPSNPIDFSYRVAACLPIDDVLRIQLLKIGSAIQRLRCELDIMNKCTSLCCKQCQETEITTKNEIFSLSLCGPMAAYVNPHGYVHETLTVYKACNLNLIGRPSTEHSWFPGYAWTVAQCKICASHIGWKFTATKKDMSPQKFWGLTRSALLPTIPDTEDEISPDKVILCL
CRBN-DDB1, sequence (Q16531 whole entry partner): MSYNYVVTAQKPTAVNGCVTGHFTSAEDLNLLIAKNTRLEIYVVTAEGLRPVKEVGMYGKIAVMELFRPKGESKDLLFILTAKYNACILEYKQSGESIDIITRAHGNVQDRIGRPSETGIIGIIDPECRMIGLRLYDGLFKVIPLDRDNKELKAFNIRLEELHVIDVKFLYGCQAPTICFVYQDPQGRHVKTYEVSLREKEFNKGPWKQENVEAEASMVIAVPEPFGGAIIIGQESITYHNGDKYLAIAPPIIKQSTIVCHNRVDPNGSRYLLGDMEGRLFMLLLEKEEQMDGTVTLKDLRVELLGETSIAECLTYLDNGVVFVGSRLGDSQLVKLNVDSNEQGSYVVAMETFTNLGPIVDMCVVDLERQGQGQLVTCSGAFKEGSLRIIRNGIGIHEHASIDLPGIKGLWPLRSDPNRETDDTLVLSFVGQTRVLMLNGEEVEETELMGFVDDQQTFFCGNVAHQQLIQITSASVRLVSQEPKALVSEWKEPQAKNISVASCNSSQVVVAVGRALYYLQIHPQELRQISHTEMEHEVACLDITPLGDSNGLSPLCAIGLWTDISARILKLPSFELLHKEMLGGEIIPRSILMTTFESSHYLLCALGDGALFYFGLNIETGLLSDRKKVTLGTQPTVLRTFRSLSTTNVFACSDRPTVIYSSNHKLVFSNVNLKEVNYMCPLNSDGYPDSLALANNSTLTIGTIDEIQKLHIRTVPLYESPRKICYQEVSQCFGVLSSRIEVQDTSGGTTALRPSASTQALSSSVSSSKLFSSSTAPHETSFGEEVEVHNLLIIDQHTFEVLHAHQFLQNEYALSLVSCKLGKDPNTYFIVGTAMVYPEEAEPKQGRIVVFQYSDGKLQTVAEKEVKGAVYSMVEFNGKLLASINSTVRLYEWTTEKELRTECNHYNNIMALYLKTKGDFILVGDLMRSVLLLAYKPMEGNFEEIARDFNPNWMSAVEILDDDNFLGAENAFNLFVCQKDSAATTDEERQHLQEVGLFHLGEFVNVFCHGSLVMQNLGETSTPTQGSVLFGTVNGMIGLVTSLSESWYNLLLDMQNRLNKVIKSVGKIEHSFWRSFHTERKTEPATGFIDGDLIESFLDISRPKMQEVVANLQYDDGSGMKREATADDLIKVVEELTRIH

Take `Cl.N[C@@H](Cc1ccccc1)C(=O)N1C/C(=C/c2ccc(Cl)c(Cl)c2)C(=O)/C(=C\c2ccc(Cl)c(Cl)c2)C1` [RA190, reference compound]: on CRBN-DDB1, the CRBN binding result is recorded as “did not show any binding to CRBN”. Moreover, the “Ub-GFP levels / proteasome function (immunoblot)” value in series [1] (312 μM, 625 μM, 1250 μM, 2500 μM, 5000 μM) is “blocks proteasome function”. In addition, the “cytotoxicity (percentage of viable cells)” value in series [2] (different multiple myeloma cell lines, 72 hours) is given as “stronger cytotoxicity than JQRA”; with MM.1S CRBN KO cells (CRBN-KO cells, 72 hours), “more robust MM cytotoxicity”.

Consider `O=C1CCC(N2C(=O)c3cccc(NCCOCCOCCOCCC(=O)N[C@@H](Cc4ccccc4)C(=O)N4C/C(=C\c5ccc(Cl)c(Cl)c5)C(=O)/C(=C/c5ccc(Cl)c(Cl)c5)C4)c3C2=O)C(=O)N1` (stereo partly drawn) [WL40], for which the CRBN binding result at CRBN-DDB1 is listed as “interacts with the E3 ubiquitin receptor CRBN”. Moreover, in series [1] (WL40, WL44 0.5-2.0 μM, RA190 1 μM), the “Ub-GFP levels / proteasome function (immunoblot)” value was “block proteasome function; also recorded: increases GFP levels”. In addition, in the series on RPMI-8226 cells, the “cytotoxic activity (cell viability)” value is given as “cytotoxic activity”. Also, the “cell viability IC50” value in series [2] (multiple myeloma cell lines, 48 hours, Wst-1) was “high IC50 in several cell lines”. For the same compound, the “viability of MM cells in co-culture” value in series [3] and in series [4] was “dose-dependent decrease in the viability of MM cells” throughout. In addition, the cell viability entry in the series on MM.1S CRBN KO cells (MM.1S-CRBN KO, 24 hours, Wst-1) is reported as “decrease cell viability”. Also, in the series with MM.1S cells, the “cytotoxicity (cell viability)” value is on record as “more cytotoxic than the parental Rpn13 inhibitor RA190”.
